Source: US8435980B2 (AbbVie Inc., priority 2009, dated 2013)

Molecular target: T1, Cdc7 (BEV coexpressed huCDC7/DBF4) (Homo sapiens, UniProt O00311)
T1 construct: made in house; host or cells: BEV (baculovirus expression vector) co-expression; insect cells are implied but no cell line is named
Assay: Cdc7 enzyme inhibition assay ([33P]ATP, biotinylated peptide substrate, FlashPlate)
Format: biochemical
Conditions: Table 3; enzyme inhibition data (Ki)
Description: Cdc7 (BEV coexpressed huCDC7/DBF4) is prepared internally. Cdc7 assays are conducted as follows with final concentrations as listed. […] Reactions are quenched after 1 hr by the addition of 90 μL stop buffer (50 mM EDTA, 2M NaCl). […] (Ki) for exemplary compounds.

T1 sequence (O00311 whole entry): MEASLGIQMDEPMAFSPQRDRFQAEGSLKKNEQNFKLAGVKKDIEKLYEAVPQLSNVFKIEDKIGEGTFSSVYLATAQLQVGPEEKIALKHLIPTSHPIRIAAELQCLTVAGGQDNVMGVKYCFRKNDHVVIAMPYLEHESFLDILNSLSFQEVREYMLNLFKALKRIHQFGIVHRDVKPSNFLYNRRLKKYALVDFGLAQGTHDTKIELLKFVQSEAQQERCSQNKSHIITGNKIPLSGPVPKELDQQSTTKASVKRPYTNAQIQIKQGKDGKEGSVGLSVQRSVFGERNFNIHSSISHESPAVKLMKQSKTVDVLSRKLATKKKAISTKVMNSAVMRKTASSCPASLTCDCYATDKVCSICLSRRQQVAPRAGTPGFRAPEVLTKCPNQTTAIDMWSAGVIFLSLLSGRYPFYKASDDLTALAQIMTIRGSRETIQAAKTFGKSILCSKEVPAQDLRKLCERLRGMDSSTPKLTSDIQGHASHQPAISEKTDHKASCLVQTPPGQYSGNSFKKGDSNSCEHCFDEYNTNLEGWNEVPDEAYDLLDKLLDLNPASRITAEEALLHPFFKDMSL
T1 sequence (Q9UBU7 whole entry partner): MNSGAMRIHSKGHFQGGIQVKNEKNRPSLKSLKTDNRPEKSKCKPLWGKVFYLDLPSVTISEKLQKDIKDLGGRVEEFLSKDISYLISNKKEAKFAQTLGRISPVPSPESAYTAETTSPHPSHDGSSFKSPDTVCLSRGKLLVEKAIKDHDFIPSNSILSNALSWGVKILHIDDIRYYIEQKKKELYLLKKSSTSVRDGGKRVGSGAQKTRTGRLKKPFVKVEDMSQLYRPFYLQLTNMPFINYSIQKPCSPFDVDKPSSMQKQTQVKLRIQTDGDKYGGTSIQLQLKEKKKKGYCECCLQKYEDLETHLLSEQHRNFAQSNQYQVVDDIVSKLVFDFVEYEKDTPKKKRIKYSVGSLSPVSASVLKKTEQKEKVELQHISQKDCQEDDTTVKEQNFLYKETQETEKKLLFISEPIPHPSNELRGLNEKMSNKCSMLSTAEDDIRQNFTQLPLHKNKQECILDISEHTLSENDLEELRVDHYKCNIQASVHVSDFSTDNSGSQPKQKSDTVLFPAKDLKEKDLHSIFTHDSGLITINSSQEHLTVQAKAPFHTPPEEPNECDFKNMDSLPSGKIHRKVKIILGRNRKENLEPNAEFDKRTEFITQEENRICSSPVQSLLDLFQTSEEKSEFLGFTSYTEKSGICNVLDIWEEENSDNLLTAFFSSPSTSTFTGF

Row | Ki [nM] | SMILES
1 | < 10 | O=C(CN1CCCC1)NC1CCCC(Nc2cc(-c3c[nH]c4ncccc34)cc(Cl)n2)C1 (stereo not drawn) [Example 130, N-(3-{[6-chloro-4-(1H-pyrrolo[2,3-b]pyridin-3-yl)pyridin-2-yl]amino}cyclohexyl)-2-(pyrrolidin-1-yl)acetamide]
2 | < 10 | O=C(N[C@H]1CC[C@H](Nc2cc(-c3c[nH]c4ncccc34)cc(Cl)n2)CC1)C1CCC1 [Example 133, N-(trans-4-{[6-chloro-4-(1H-pyrrolo[2,3-b]pyridin-3-yl)pyridin-2-yl]amino}cyclohexyl)cyclobutanecarboxamide]
3 | < 10 | O=C1CC[C@@H](C(=O)NC2CCCC(Nc3cc(-c4c[nH]c5ncccc45)cc(Cl)n3)C2)N1 (stereo partly drawn) [Example 139, N-(3-{[6-chloro-4-(1H-pyrrolo[2,3-b]pyridin-3-yl)pyridin-2-yl]amino}cyclohexyl)-5-oxoprolinamide]
4 | < 10 | NCCS(=O)(=O)NC1CCCC(Nc2cc(-c3c[nH]c4ncccc34)cc(Cl)n2)C1 (stereo not drawn) [Example 145, 2-amino-N-(3-{[6-chloro-4-(1H-pyrrolo[2,3-b]pyridin-3-yl)pyridin-2-yl]amino}cyclohexyl)ethanesulfonamide]
5 | < 10 | CN1CCCC(CNc2cc(-c3c[nH]c4ncccc34)cc(Cl)n2)C1 (stereo not drawn) [Example 146, 6-chloro-N-[(1-methylpiperidin-3-yl)methyl]-4-(1H-pyrrolo[2,3-b]pyridin-3-yl)pyridin-2-amine]
6 | < 10 | CN1CCC(N[C@H]2CC[C@H](Nc3cc(-c4c[nH]c5ncccc45)cc(Cl)n3)CC2)CC1 [Example 148, trans-N-[6-chloro-4-(1H-pyrrolo[2,3-b]pyridin-3-yl)pyridin-2-yl]-N′-(1-methylpiperidin-4-yl)cyclohexane-1,4-diamine]
7 | < 10 | O=C(CN[C@H]1CC[C@H](O)CC1)N[C@H]1CC[C@H](Nc2cc(-c3c[nH]c4ncccc34)cc(Cl)n2)CC1 [Example 152, N-(trans-4-{[6-chloro-4-(1H-pyrrolo[2,3-b]pyridin-3-yl)pyridin-2-yl]amino}cyclohexyl)-N^2-(trans-4-hydroxycyclohexyl)glycinamide]
8 | < 10 | O=C(CNCCN1CCOCC1)N[C@H]1CC[C@H](Nc2cc(-c3c[nH]c4ncccc34)cc(Cl)n2)CC1 [Example 153, N-(trans-4-{[6-chloro-4-(1H-pyrrolo[2,3-b]pyridin-3-yl)pyridin-2-yl]amino}cyclohexyl)-N^2-[2-(morpholin-4-yl)ethyl]glycinamide]
9 | < 10 | CN(C)C1CCC(CC2CCC(Nc3cc(-c4c[nH]c5ncccc45)cc(Cl)n3)CC2)CC1 (stereo not drawn) [Example 155, 6-chloro-N-(4-{[4-(dimethylamino)cyclohexyl]methyl}cyclohexyl)-4-(1H-pyrrolo[2,3-b]pyridin-3-yl)pyridin-2-amine]
10 | < 10 | Clc1cc(-c2c[nH]c3ncccc23)cc(NC2CCC(CC3CCC(NC4CCCCC4)CC3)CC2)n1 (stereo not drawn) [Example 156]
11 | < 10 | CC(=O)NC1CCC(N[C@H]2CC[C@H](Nc3cc(-c4c[nH]c5ncccc45)cc(Cl)n3)CC2)CC1 (stereo partly drawn) [Example 161, N-{4-[(trans-4-{[6-chloro-4-(1H-pyrrolo[2,3-b]pyridin-3-yl)pyridin-2-yl]amino}cyclohexyl)amino]cyclohexyl}acetamide]
12 | < 10 | O=C(NCCS(=O)(=O)NC1CCCC(Nc2cc(-c3c[nH]c4ncccc34)cc(Cl)n2)C1)C1CC1 (stereo not drawn) [Example 165, N-{2-[(3-{[6-chloro-4-(1H-pyrrolo[2,3-b]pyridin-3-yl)pyridin-2-yl]amino}cyclohexyl)sulfamoyl]ethyl}cyclopropanecarboxamide]
13 | < 10 | O=S(=O)(CCNC1CCC1)NC1CCCC(Nc2cc(-c3c[nH]c4ncccc34)cc(Cl)n2)C1 (stereo not drawn) [Example 170, N-(3-{[6-chloro-4-(1H-pyrrolo[2,3-b]pyridin-3-yl)pyridin-2-yl]amino}cyclohexyl)-2-(cyclobutylamino)ethanesulfonamide]

Continued, molecule first:

Row | SMILES | Ki [nM]
14 | NC1(C(=O)NC2CCCC(Nc3cc(-c4c[nH]c5ncccc45)cc(Cl)n3)C2)CCC1 (stereo not drawn) [Example 135, 1-amino-N-(3-{[6-chloro-4-(1H-pyrrolo[2,3-b]pyridin-3-yl)pyridin-2-yl]amino}cyclohexyl)cyclobutanecarboxamide] | < 10
15 | O=C(CNC1CCCC1)N[C@H]1CC[C@H](Nc2cc(-c3c[nH]c4ncccc34)cc(Cl)n2)CC1 [Example 137, N-(trans-4-{[6-chloro-4-(1H-pyrrolo[2,3-b]pyridin-3-yl)pyridin-2-yl]amino}cyclohexyl)-N^2-cyclopentylglycinamide] | < 10
16 | CS(=O)(=O)N1CCCC(Nc2cc(-c3c[nH]c4ncccc34)cc(Cl)n2)C1 (stereo not drawn) [Example 138, 6-chloro-N-[1-(methylsulfonyl)piperidin-3-yl]-4-(1H-pyrrolo[2,3-b]pyridin-3-yl)pyridin-2-amine] | < 10
17 | O=C(CN1CCOCC1)N[C@H]1CC[C@H](Nc2cc(-c3c[nH]c4ncccc34)cc(Cl)n2)CC1 [Example 141, N-(trans-4-{[6-chloro-4-(1H-pyrrolo[2,3-b]pyridin-3-yl)pyridin-2-yl]amino}cyclohexyl)-2-(morpholin-4-yl)acetamide] | < 10
18 | O=C(CN1CCN(c2ccccn2)CC1)N[C@H]1CC[C@H](Nc2cc(-c3c[nH]c4ncccc34)cc(Cl)n2)CC1 [Example 142, N-(trans-4-{[6-chloro-4-(1H-pyrrolo[2,3-b]pyridin-3-yl)pyridin-2-yl]amino}cyclohexyl)-2-[4-(pyridin-2-yl)piperazin-1-yl]acetamide] | < 10
19 | NC1CCC(CC2CCC(Nc3cc(-c4c[nH]c5ncccc45)cc(Cl)n3)CC2)CC1 (stereo not drawn) [Example 143, N-{4-[(4-aminocyclohexyl)methyl]cyclohexyl}-6-chloro-4-(1H-pyrrolo[2,3-b]pyridin-3-yl)pyridin-2-amine] | < 10
20 | O=C1CC(C(=O)N[C@H]2CC[C@H](Nc3cc(-c4c[nH]c5ncccc45)cc(Cl)n3)CC2)CC(=O)N1 [Example 144, N-(trans-4-{[6-chloro-4-(1H-pyrrolo[2,3-b]pyridin-3-yl)pyridin-2-yl]amino}cyclohexyl)-2,6-dioxopiperidine-4-carboxamide] | < 10
21 | CC(=O)N1CCCC(Nc2cc(-c3c[nH]c4ncccc34)cc(Cl)n2)C1 (stereo not drawn) [Example 147, 1-(3-{[6-chloro-4-(1H-pyrrolo[2,3-b]pyridin-3-yl)pyridin-2-yl]amino}piperidin-1-yl)ethanone] | < 10
22 | COc1cnc2[nH]cc(-c3cc(Cl)nc(N[C@H]4CC[C@H](O)CC4)c3)c2c1 [Example 149, trans-4-{[6-chloro-4-(5-methoxy-1H-pyrrolo[2,3-b]pyridin-3-yl)pyridin-2-yl]amino}cyclohexanol] | < 10
23 | O=C(CN1CCOCC1)Nc1cc(-c2c[nH]c3ncccc23)cc(Cl)n1 [Example 150, N-[6-chloro-4-(1H-pyrrolo[2,3-b]pyridin-3-yl)pyridin-2-yl]-2-(morpholin-4-yl)acetamide] | < 10
24 | Clc1cc(-c2c[nH]c3ncccc23)cc(N[C@H]2CC[C@H](NC3CCN(C4CCCCC4)CC3)CC2)n1 [Example 157, trans-N-[6-chloro-4-(1H-pyrrolo[2,3-b]pyridin-3-yl)pyridin-2-yl]-N′-(1-cyclohexylpiperidin-4-yl)cyclohexane-1,4-diamine] | < 10
25 | Clc1cc(-c2c[nH]c3ncccc23)cc(NC2CCC(C3CCNCC3)CC2)n1 (stereo not drawn) [Example 159, 6-chloro-N-[4-(piperidin-4-yl)cyclohexyl]-4-(1H-pyrrolo[2,3-b]pyridin-3-yl)pyridin-2-amine] | < 10
26 | O=C(N[C@H]1CC[C@H](Nc2cc(-c3c[nH]c4ncccc34)cc(Cl)n2)CC1)C1CNC1 [Example 160, N-(trans-4-{[6-chloro-4-(1H-pyrrolo[2,3-b]pyridin-3-yl)pyridin-2-yl]amino}cyclohexyl)azetidine-3-carboxamide] | < 10
27 | O=C(NC1CCC(N[C@H]2CC[C@H](Nc3cc(-c4c[nH]c5ncccc45)cc(Cl)n3)CC2)CC1)C1CC1 (stereo partly drawn) [Example 162, N-{4-[(trans-4-{[6-chloro-4-(1H-pyrrolo[2,3-b]pyridin-3-yl)pyridin-2-yl]amino}cyclohexyl)amino]cyclohexyl}cyclopropanecarboxamide] | < 10
28 | CC(=O)N1CCC(C2CCC(Nc3cc(-c4c[nH]c5ncccc45)cc(Cl)n3)CC2)CC1 (stereo not drawn) [Example 163, 1-[4-(4-{[6-chloro-4-(1H-pyrrolo[2,3-b]pyridin-3-yl)pyridin-2-yl]amino}cyclohexyl)piperidin-1-yl]ethanone] | < 10
29 | CC(=O)NCCS(=O)(=O)NC1CCCC(Nc2cc(-c3c[nH]c4ncccc34)cc(Cl)n2)C1 (stereo not drawn) [Example 164, N-{2-[(3-{[6-chloro-4-(1H-pyrrolo[2,3-b]pyridin-3-yl)pyridin-2-yl]amino}cyclohexyl)sulfamoyl]ethyl}acetamide] | < 10
30 | O=C(N[C@H]1CC[C@H](Nc2cc(-c3c[nH]c4ncccc34)cc(Cl)n2)CC1)C1CN(Cc2ccc(F)cc2)C1 [Example 166, N-(trans-4-{[6-chloro-4-(1H-pyrrolo[2,3-b]pyridin-3-yl)pyridin-2-yl]amino}cyclohexyl)-1-(4-fluorobenzyl)azetidine-3-carboxamide] | < 10
31 | CS(=O)(=O)N1CC(C(=O)N[C@H]2CC[C@H](Nc3cc(-c4c[nH]c5ncccc45)cc(Cl)n3)CC2)C1 [Example 167, N-(trans-4-{[6-chloro-4-(1H-pyrrolo[2,3-b]pyridin-3-yl)pyridin-2-yl]amino}cyclohexyl)-1-(methylsulfonyl)azetidine-3-carboxamide] | < 10
32 | Clc1cc(-c2c[nH]c3nccc(Cl)c23)cc(NC2CCCCC2)n1 [Example 168, 6-chloro-4-(4-chloro-1H-pyrrolo[2,3-b]pyridin-3-yl)-N-cyclohexylpyridin-2-amine] | < 10
33 | Clc1cc(-c2c[nH]c3ncc(-c4cn[nH]c4)cc23)cc(NC2CCCCC2)n1 [Example 171, 6-chloro-N-cyclohexyl-4-[5-(1H-pyrazol-4-yl)-1H-pyrrolo[2,3-b]pyridin-3-yl]pyridin-2-amine] | < 10
